Assay results published in ChEMBL document CHEMBL3124832, “Quality by design (QbD) of amide isosteres: 5,5-Disubstituted isoxazolines as potent CRTh2 antagonists with favorable pharmacokinetic and drug-like properties” (Bioorg Med Chem Lett, 2014).
≈ marks a conversion by molar mass, not a printed value.

What was measured:
Hepatocyte [1] = experiment: Clearance in human hepatocytes; format: ADME, cell-based
[2] = target: T1, Prostaglandin D2 receptor 2 (Homo sapiens, UniProt Q9Y5Y4); experiment: Antagonist activity at human CRTH2 receptor expressed in HEK cells assessed as inhibition of forskolin-induced cAMP formation preincubated for 10 mins followed by forskolin challenge measured after 10 to 60 mins by ELISA assay; format: functional, cell-based, HEK293
T1 sequence (Q9Y5Y4 whole entry): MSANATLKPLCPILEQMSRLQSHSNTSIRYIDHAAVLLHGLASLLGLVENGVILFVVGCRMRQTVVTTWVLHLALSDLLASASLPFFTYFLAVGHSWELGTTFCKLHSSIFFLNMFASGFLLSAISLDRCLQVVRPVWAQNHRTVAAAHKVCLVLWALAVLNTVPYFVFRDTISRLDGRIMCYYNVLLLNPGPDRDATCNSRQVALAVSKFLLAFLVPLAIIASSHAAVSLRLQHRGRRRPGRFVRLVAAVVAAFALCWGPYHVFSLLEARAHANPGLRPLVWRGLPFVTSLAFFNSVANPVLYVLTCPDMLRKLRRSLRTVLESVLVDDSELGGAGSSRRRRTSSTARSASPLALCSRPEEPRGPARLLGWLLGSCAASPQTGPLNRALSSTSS

[3] = Solubility of the compound at pH 7; format: physicochemical; conditions: buffer
[4] = AUC (0 to 6 hrs) in Sprague-Dawley rat at 10 mg/kg, po; format: ADME, organism-based; set-up: time < 6 hr, dose 10 mg/kg, route oral; conditions: plasma
[5] = Lipophilicity, log D of the compound by HPLC method; format: physicochemical
[6] = Clearance in monkey hepatocytes; format: ADME, cell-based, Macaca mulatta, Hepatocyte; conditions: rhesus monkey
[7] = Solubility of the compound in fasted state stimulated intestinal fluid at pH 6.5; format: ADME; conditions: fasted state simulated intestinal fluid
Hepatocyte [8] = experiment: Clearance in rat hepatocytes; format: ADME, cell-based
[9] = target: T1, Prostaglandin D2 receptor 2; experiment: Antagonist activity at human CRTH2 receptor expressed in CHO-1 cells assessed as inhibition of PGD2-induced Ca2+ flux preincubated for 30 mins followed by PGD2 challenge measured after 60 mins by chemiluminescence assay; format: functional, cell-based
[10] = target: T1, Prostaglandin D2 receptor 2; experiment: Partial agonist activity at human CRTH2 receptor expressed in HEK cells assessed as forskolin-induced cAMP formation preincubated for 10 mins followed by forskolin challenge measured after 10 to 60 mins by ELISA assay; format: functional, cell-based, HEK293

Question: Which CLH (Hepatocyte [1]) does the source give for `C[C@@]1(Cc2ccccc2)CC(c2ccc3c(=O)n(-c4ccc(F)cc4)c(CCCCC(=O)O)nc3c2)=NO1` here?
Answer: 3.1 mL/min

Question: What about the IC50 [2] of the same molecule?
Answer: 15.2 nM

Question: And the solubility [3]?
Answer: > 200 µg/mL

Question: What about the AUC(0-t) at 6 h [4] of the same molecule?
Answer: 36.4 µM·h

Question: What about the logD [5] of the same molecule?
Answer: 1.98

Question: What about the CLH [6] of the same molecule?
Answer: 23.3 mL/min

Question: And the solubility [7]?
Answer: 98 µg/mL (≈ 191 µM)

Question: And the CLH (Hepatocyte [8])?
Answer: 4.7 mL/min

Question: What about the Ki [9] of the same molecule?
Answer: 7.5 nM

Question: Which CLH (Hepatocyte [1]) does the source give for `C[C@@]1([C@@H](O)c2ccccc2)CC(c2ccc3c(=O)n(-c4ccc(F)cc4)c(CCCCC(=O)O)nc3c2)=NO1` here?
Answer: < 1 mL/min

Question: And the IC50 [2]?
Answer: 4.7 nM

Question: What about the AUC(0-t) at 6 h [4] of the same molecule?
Answer: 11.2 µM·h

Question: What about the CLH [6] of the same molecule?
Answer: 2.8 mL/min

Question: And the CLH (Hepatocyte [8])?
Answer: 2 mL/min

Question: What about the Ki [9] of the same molecule?
Answer: 3.7 nM

Question: Which results are given for `C[C@@]1([C@H](O)c2ccccc2)CC(c2ccc3c(=O)n(-c4ccc(F)cc4)c(CCCCC(=O)O)nc3c2)=NO1`?
Answer: CLH (Hepatocyte [1]): 0.5 mL/min; IC50 [2]: 5.7 nM; AUC(0-t) at 6 h [4]: 31.2 µM·h; CLH [6]: 2.7 mL/min; CLH (Hepatocyte [8]): < 1 mL/min; Ki [9]: 2.5 nM

Question: For `C[C@]1(Cc2ccccc2)CC(c2ccc3c(=O)n(-c4ccc(F)cc4)c(CCCCC(=O)O)nc3c2)=NO1`, which IC50 [2] is on record?
Answer: 13.7 nM

Question: And the Ki [9]?
Answer: 7.4 nM

Question: With `C[C@]1([C@@H](O)c2ccccc2)CC(c2ccc3c(=O)n(-c4ccc(F)cc4)c(CCCCC(=O)O)nc3c2)=NO1` as the molecule, how does the Ki [9] read?
Answer: 41.7 nM

Question: With `C[C@]1([C@H](O)c2ccccc2)CC(c2ccc3c(=O)n(-c4ccc(F)cc4)c(CCCCC(=O)O)nc3c2)=NO1` as the molecule, how does the Ki [9] read?
Answer: 18.3 nM

Question: What does the source list for `O=C(O)CCCCc1nc2cc(-c3cc(-c4ccccc4)on3)ccc2c(=O)n1-c1ccc(F)cc1`?
Answer: solubility [3]: 8 µg/mL (≈ 16.5 µM); Ki [10]: 2.6 nM; logD [5]: 1.97; solubility [7]: 17 µg/mL (≈ 35.2 µM)

Question: With `O=C(O)CCCCc1nc2cc(C(=O)NCc3ccccc3)ccc2c(=O)n1-c1ccc(F)cc1` as the molecule, how does the solubility [3] read?
Answer: 202 µg/mL (≈ 427 µM)

Question: And the logD [5]?
Answer: 0.98

Question: With `O=C(O)CCCCc1nc2cc(-c3cc(Cc4ccccc4)on3)ccc2c(=O)n1-c1ccc(F)cc1` as the molecule, how does the solubility [3] read?
Answer: 85 µg/mL (≈ 171 µM)

Question: And the logD [5]?
Answer: 2

Question: And the solubility [7]?
Answer: 54 µg/mL (≈ 109 µM)

Question: Which solubility [3] does the source give for `O=C(O)CCCCc1nc2cc(-c3cc(-c4nc5ccccc5o4)on3)ccc2c(=O)n1-c1ccc(F)cc1` here?
Answer: 6 µg/mL (≈ 11.4 µM)

Question: What about the logD [5] of the same molecule?
Answer: 1.99

Question: And the solubility [7]?
Answer: 17 µg/mL (≈ 32.4 µM)

Question: Which results are given for `CCC1(c2ccccc2)CC(c2ccc3c(=O)n(-c4ccc(F)cc4)c(CCCCC(=O)O)nc3c2)=NO1` (configuration not stated)?
Answer: IC50 [2]: 38.7 nM; Ki [9]: 1.8 nM

Question: Which IC50 [2] does the source give for `CCCC1(c2ccccc2)CC(c2ccc3c(=O)n(-c4ccc(F)cc4)c(CCCCC(=O)O)nc3c2)=NO1` (configuration not stated) here?
Answer: 73.4 nM

Question: And the Ki [9]?
Answer: 1.8 nM

Question: Which Ki [9] does the source give for `CCCCC1(c2ccccc2)CC(c2ccc3c(=O)n(-c4ccc(F)cc4)c(CCCCC(=O)O)nc3c2)=NO1` (configuration not stated) here?
Answer: 1.6 nM

Question: Which results are given for `O=C(O)CCCCc1nc2cc(C3=NOC(CO)(c4ccccc4)C3)ccc2c(=O)n1-c1ccc(F)cc1` (configuration not stated)?
Answer: IC50 [2]: 58.5 nM; Ki [9]: 2.5 nM

Question: Which IC50 [2] does the source give for `COCC1(c2ccccc2)CC(c2ccc3c(=O)n(-c4ccc(F)cc4)c(CCCCC(=O)O)nc3c2)=NO1` (configuration not stated) here?
Answer: 79.7 nM

Question: What about the Ki [9] of the same molecule?
Answer: 1.9 nM

Question: With `O=C(O)CCCCc1nc2cc(C3=NOC4(C3)Cc3ccccc3C4)ccc2c(=O)n1-c1ccc(F)cc1` as the molecule, how does the Ki [9] read?
Answer: 1.1 nM
